Measurements as given in patent US20090259054A1, “Methods and Compositions for the Treatment of Angiogenesis and Macular Degeneration” (The Texas A&M University System, priority 2008, published 2009).
Entries after “also recorded” stand apart in the source; their conditions may differ.

What was measured:
[1] = tested on: HUVEC cells; test: Western blotting for cleaved caspase 3 and cleaved PARP (apoptosis); type: cell-based, human; settings: 100 nM GA
Description: HUVEC cells pretreated with or without 4 nM VEGF for 5 min were treated with or without different concentrations of GA for another 5 minutes. 200 μg total protein of the cells of each sample was subjected to immunoprecipitation using anti-c-Src, anti-FAK and anti-AKT antibodies (Santa Cruz Biotech) and further subjected to Western blotting. The pTyr-antibody (Santa Cruz Biotech) was used for detecting c-Src phosphorylation and the pFAK397 antibody (Cell Signaling) was blotted for c-Src-associated FAK phosphorylation at […]. In addition, AKT phosphorylation was examined using a pSer473-AKT antibody (Cell Signaling). Anti-cleaved caspase 3 antibody (Santa Cruz Biotech) was used for detecting cleaved caspase 3 and polyADP ribose polymerase (PARP) cleavage was detected by an anti-PARP p85 fragment (Promega) in apoptosis assays.
Several previous studies described gambogic acid (FIG. 1A) activated apoptosis in cancer cells, which partly answered the molecular mechanism of GA's anticancer characters. […] Whole cell proteins of GA treated HUVECs were analyzed by Western blotting with anticleaved caspase 3 and PARP antibodies. […] To investigate if the apoptotic activation effect of GA is different between endothelial cells and cancer cells, we measured the apoptotic populations of HUVECs and human prostate cancer cell PC3 cells treated with GA by flow cytometry FACS assays. […]

[2] = tested on: HUVEC cells; test: Proliferation assay (CellTiter 96 Aqueous One); type: cell-based; settings: Homo sapiens, read-out: Concentration that inhibits HUVEC cell proliferation by 50%
From the text: (§1) HUVEC and PC3 cell proliferation assays with different concentrations of GA were followed according to the CellTiter 96 Aqueous One Solution Cell Proliferation Assay (Promega) and analyzed using a VERSAMAX microplate reader (Molecular Devices).

[3] = tested on: PC3 cells; test: Proliferation assay (CellTiter 96 Aqueous One); type: cell-based; settings: Homo sapiens, PC-3; PC3 cancer cells; read-out: Concentration required to inhibit PC3 cell proliferation by 50%
From the text: as §1

[4] = tested on: c-Src; test: c-Src phosphorylation in HUVEC cells (immunoprecipitation, Western blotting); type: cell-based, human; settings: HUVEC cells with or without VEGF, GA 1-40 nM, 5 minutes
Description: (§2) After starvation in ECGM medium without serum overnight, HUVEC cells were washed with 1×PBS twice, followed with incubation in M199 medium. HUVEC cells were then treated with 1 nM of GA and/or 4 nM of VEGF for 5 minutes, then subjected to immunoprecipitation using anti-VEGFR2 antibody. Anti-phosphotyrosine antibody was used for the detection of phosphorylation of the tyrosine residue of VEGFR2. […] Reaction cocktail containing 100 ng of active VEGFR2 was incubated with different concentrations of GA for 5 minutes at room temperature. Substrate peptide cocktail was added to the pre-incubated reaction cocktail/GA compound. After incubation at room temperature for 30 minutes, stop buffer was added to halt the reaction. 25 μl of each reaction was then transferred with 75 μl dH2O per well into a 96-well streptavidin coated plate and incubated at room temperature for 60 minutes. […] The stop solution was added and the plate was detected at 405 nm. […]
(§3) HUVEC cells pretreated with or without 4 nM VEGF for 5 min were treated with or without different concentrations of GA for another 5 minutes. […] Anti-cleaved caspase 3 antibody (Santa Cruz Biotech) was used for detecting cleaved caspase 3 and polyADP ribose polymerase (PARP) cleavage was detected by an anti-PARP p85 fragment (Promega) in apoptosis assays.

[5] = 4 mg/kg GA, 1 treatment every two days; cited from earlier work
[6] = tested on: mice exposed to OIR; test: Mouse oxygen-induced ischemic retinopathy (OIR) model, retinal neovascularization; type: in vivo; settings: GA 10 mg/kg, P17 mice exposed to OIR, p<0.001
Description: FIG. 9B is a bar graph providing a quantitative assessments of retinal neovascularization in eyes from P17 control and GA-treated mice exposed to OIR. Data in each column are the mean SD values from four eyes of four mice. […] GA concentration was used as 10 mg/kg for this mouse model. Assessment of retinal neovasculature in control (left) and GA-treated (right) mice during OIR.P7 mice were exposed to a cycle of hyperoxia and normoxia, and eyes were removed for appropriate analysis. The abnormal angiogenesis associated with vitreal invasion can be seen as glomeruloid-like tufts of cell (arrow).

[7] = tested on: AKT; test: AKT phosphorylation (pSer473) in HUVEC cells (immunoprecipitation, Western blotting); type: cell-based, human; settings: HUVEC cells with or without VEGF, increasing concentration of GA
Description: as §2, §3

[8] = tested on: HUVEC cells; test: Tube formation assay on Matrigel; type: cell-based, human; settings: for IC50: Homo sapiens, HUVEC
Description: Matrigel (BD Biosciences) were thawed at 4° C. overnight and each well of the prechilled 24-well plates was coated with 100 μl Matrigel and incubated at 37° C. for 45 minutes. HUVEC cells (4×10^4 cells) were added in 1 ml ECGM with various concentrations of gambogic acid. After 12-16 hours of incubation at 37° C., 5% CO2, endothelial cell tube formation was assessed using an OLYMPUS inverted microscope. Tubular structures were quantified by manual counting of low power fields (25×) and percent inhibition was expressed using untreated wells as 100% (t-test, p<0.001).

With `CC(C)=CCC[C@]1(C)C=Cc2c(O)c3c(c(CC=C(C)C)c2O1)O[C@]12C(=C[C@@H]4C[C@H]1C(C)(C)O[C@@]2(C/C=C(/C)C(=O)O)C4=O)C3=O` [GA, gambogic acid] the “Apoptosis by cleaved caspase 3 and cleaved PARP” value [1] was “induces apoptosis; also recorded: strongly induced apoptosis”, the IC50 [2] was 80 nM and the IC50 [3] was greater than 400 nM. The “Phosphorylation and activation of c-Src” value [4] was “significantly inhibited the phosphorylation and activation”, the Toxicity of dosage [5] was “non-toxic dosage” and the Retinal neovascularization [6] was “significantly inhibits retinal neovascularization; also recorded: significant difference in the degree of neovascularization”. The “Phosphorylation and activation of AKT (pSer473)” value [7] was “inhibited AKT phosphorylation and activation”, the “Tube formation ability of HUVECs” value ([8]; 100 nM GA) was “completely inhibited the tube-forming ability; also recorded: completely inhibited the tube formation ability” and the IC50 ([8]; 12-16 hours, read-out: Concentration that inhibited tube formation of HUVEC cells by 50%) was roughly 50 nM. For the same molecule, the IC50 ([8]; as printed in the legend of FIG. 3, read-out: Concentration that inhibited 50% tube formation of HUVEC cells) was roughly 50 nM.
